Experiment: Stability of crystalline form against polymorphic transformation at 60% relative humidity (PXRD comparison, FIG. 2)
Assay type: physicochemical
Description: FIG. 2 illustrates an X-ray powder diffraction pattern of form X of dexLansoprazole compared with the same form X after a week at 60% relative humidity.
As used herein in connection with form X, the term “stable” refers to stability against transformation, in which no more than about 20% of a polymorphic form transforms to another form under no less than about 60% relative humidity at about room temperature. When made according to the preferred embodiments of the present invention, less than 20% of form X transforms to any other form upon exposure to a RH of 60% at room temperature for a period of 7 days.
For ARL Powder diffractometer (All XRD Figures except FIG. 13):
Sample: Spin/Oscillate mode Range: 2-40 degrees two-theta Scan mode: Continuous scan Step size: 0.05 deg Scan rate: 3 deg./min

- amount of the form that transforms to any other form (exposure to RH of 60% at room temperature for 7 days): less than 20%
- stability of the crystalline form (PXRD pattern after storage) (relative humidity of 60%, room temperature, 7 days, PXRD, FIG. 2): retains its PXRD pattern
SMILES: Cc1c(OCC(F)(F)F)ccnc1C[S@@+]([O-])c1nc2ccccc2[nH]1 [form X, (R)-2-[(3-methyl-4-(2,2,2-trifluoroethoxy)pyridin-2-yl)methylsulfinyl]-1H-benzoimidazole]

— patent US20100113527A1, “CRYSTALLINE FORMS OF DEXLANSOPRAZOLE” (Teva Pharmaceutical Industries Ltd., priority 2008, published 2010)
